The conditions of data set [1]: oral administration; cited from earlier work.
For data set [2], the system named is SH-S5Y5 neuroblastoma cells. Nature of the data set: Cell viability (MTT) in response to Aβ, in vitro model of Alzheimer's disease. The note with it: 20 μM Aβ, 24 h. It counts as cell-based. From the text:
(§1) The SH-S5Y5 neuroblastoma cell line was used for pre-clinical analysis. The SH-S5Y5 cell line is commonly used as a model for neurodegenerative disorders as the cells can be converted to various types of functional neurons by the addition of specific compounds (see, e.g., Xicoy et al., 2017, Molecular Neurodegeneration, 12: 10). In addition, the SH-S5Y5 cell line has been used widely in experimental neurological studies, including analysis of neuronal differentiation, metabolism, and function related to neurodegenerative processes, neurotoxicity and neuroprotection (see, e.g., Datki et al., 2003, Brain Research Bulletin, 62(3): 22-229; and Xie et al., 2010, Chinese Medical Journal, 123(8): 1086-1092).
100 μL MTT reagent was added to each well (final concentration 0.5 mg/mL). Cells were then incubated at 37 °C, 5% CO2 for 4 hours. Solubilization buffer (100 μL) was then added to each well and further incubated at 37 °C, 5% CO2 for 24 hours. Absorbance was then measured by spectrophotometer at 550-600 nm and background corrected at 650 nm.
Amyloid-β (Aβ; 1 mg) was dissolved in 2 mL of 1,1,1,3,3,3-hexafluoro-2-propanol (HFIP). An additional 200 μL of HFIP was then added due to volatility. The Aβ was sealed with parafilm and vortexed for 30 seconds before aliquoting at 100 μL per 1.5 mL tube. HFIP was then evaporated in fume hood for 8 hours. Tubes were then sealed with lid and parafilm and stored at −80 °C. Prior to use, Aβ was reconstituted in DMSO to a final volume of 10% v/v for 10-15 min at RT and vortexed every 3-5 min. F-12 medium was then added to a final volume of 90% v/v. Aβ was then stored at 4 °C for 24 hours and vortexed before use.
Cells were seeded in 96-well microplates and incubated 37 °C, 5% CO2 for 24 hours.

The next data set concerns SH-SY5Y cells. In words: Gene expression analysis by RNA sequencing in the presence of Aβ. It counts as cell-based, human.
Excerpt: as §1
Total RNA was isolated from cells using TRIzol in accordance with the manufacturer's instructions (Invitrogen, Carlsbad, CA, USA). RNA concentration and quality was assessed using a NanoDrop spectrophotometer. Only samples with a 260/280 ratio of ≥1.8 were used for further analysis.
Messenger RNA (mRNA) was purified from total RNA using poly-T oligo attached magnetic beads. After fragmentation, cDNA synthesis was performed in accordance with the manufacturer's instructions (Illumina, San Diego, CA, USA) to generate a directional and non-directional library. Libraries were checked with Qubit, real-time PCR was performed for quantification, and size distribution detection was performed using the Bioanalyzer. Quantified libraries were pooled and sequenced on an Illumina platform, according to the manufacturer's instructions.
Raw reads were filtered and mapped to human reference genome (GRCh38/hg38) using HISAT2. Differential gene expression analysis was performed using R Package DEG seq2. […] Manual annotation of genes previously associated with specific neurodegenerative disorders and dementias was performed following a text mining analysis.

Take `CCN(C)C(=O)Oc1cccc([C@H](C)N(C)C)c1` [Rivastigmine]: the bioavailability result in data set [1] is reported as “high bioavailability”.
In the case of `COc1ccc2c3c1O[C@H]1C[C@@H](O)C=C[C@@]31CCN(C)C2` [Galantamine], the bioavailability entry in data set [1] is “high bioavailability”.
Take `C=C(C)[C@@H]1CCC(C)=C[C@H]1c1c(O)cc(CCCCC)cc1O` [CBD, Cannabidiol]: the figures for the “Cell viability as measured by MTT” value in data set [2] (CBD 2.5 μM), in data set [2] (CBD 5 μM) and in data set [2] (CBD 10 μM) were 0.011, 0.031 and 0.116, respectively. For the same molecule, the MFSD8 expression with SH-SY5Y cells worked out at 2.603 FPKM. The MBP expression with SH-SY5Y cells (5 μM CBD, Aβ, control 0.089, P 0.012) is on record as 0.046 FPKM. The GBE1 expression in the data set with SH-SY5Y cells (5 μM CBD, Aβ, control 1.194, P 0.037) was found to be 1.305 FPKM. Further, in the data set on SH-SY5Y cells (5 μM CBD, Aβ, control 1.970, P 0.037), the ERCC4 expression is 2.197 FPKM. The MT-TW expression in the data set with SH-SY5Y cells (5 μM CBD, Aβ, control 2.846, P 0.023) is 4.309 FPKM. Further, the TRAPPC2 expression with SH-SY5Y cells (5 μM CBD, Aβ, control 3.872, P 0.013) is reported as 4.267 FPKM. The SLC20A2 expression in the data set with SH-SY5Y cells (5 μM CBD, Aβ, control 7.014, P 0.046) was 7.447 FPKM. The IRF6 expression with SH-SY5Y cells (5 μM CBD, Aβ, control 7.365, P 0.012) amounted to 7.774 FPKM. Also, in the data set with SH-SY5Y cells (5 μM CBD, Aβ, control 34.350, P 0.018), the LAMP1 expression came to 31.452 FPKM. Also, the TAF15 expression was 17.887 FPKM with SH-SY5Y cells (5 μM CBD, Aβ, first TAF15 line, control 14.968, P 0.046) and 17.095 FPKM in the data set on SH-SY5Y cells (5 μM CBD, Aβ, second TAF15 line, control 15.869, P 0.046).

(Values after patent US20260345641A1, “COMPOSITIONS AND USES THEREOF” (Algorae Pharmaceuticals Ltd, priority 2023, published 2026).)
